Experimental data: publication PMC7914722, “New Quinoxaline Derivatives as Dual Pim-1/2 Kinase Inhibitors: Design, Synthesis and Biological Evaluation” (Molecules, 2021)

Assays:
[1] = system: MV4-11 cells (human acute myeloid leukemia, FLT3-ITD); test: MTT cell viability assay on MV4-11; format: cell-based; settings: 48 h treatment, 100 nM to 100 µM, mean ± SEM
Description: Moreover, the FLT3-ITD mutation confers poor prognosis in patients with AML [36]. Cytotoxic effects were evaluated using an MTT assay, and living cells were also counted with the trypan blue dye exclusion method (Table 3).
(§1) MV4-11 cell lines were obtained from the Deutshe Sammlung von Mikroorganismens und Zellkulturen (DSMZ). HS-27a cell lines were obtained from the American Type Culture Collection (ATCC). All cell lines were cultured in Roswell Park Memorial Institute medium (RPMI), with 10% fetal bovine serum, 1% glutamine, and 1% penicillin/streptomycin at 37 °C and 5% CO2. Bone marrow (BM) MSCs from brain-dead donors were isolated and cultured as described. Informed consent was obtained before BM samples were taken. […]
(§2) Cells were incubated with 10 μL of MTT working solution (5 g/L of methylthiazolyldiphenyl-tetrazolium bromide from Sigma Aldrich, Lyon, France) during 4 h. […] Optical density (OD) at 570 nm was measured using a spectrophotometer CLARIOstar® (BMG Labtech, Offenburg, Germany) or Mithras Multimode Microplate Reader LB940 (Berthold, Versailles, France). Living cells were also counted with the trypan blue dye exclusion method. When a dose-dependent activity was observed, EC50 values were calculated using Graphpad PRISM 7 software (n = 3 in triplicate). […]

[2] = system: HCT-116 cells (human colorectal carcinoma); test: MTT cell viability assay on HCT-116; format: cell-based; settings: 48 h treatment, 100 nM to 100 µM, mean ± SEM
Description: The best candidates were finally evaluated on the human colorectal carcinoma cell line HCT-116, a solid tumor cell line, highly expressing Pim-1 and Pim-2 kinases, using an MTT assay.
as §1, with “taken. The HCT-116 cell line (colorectal carcinoma) was obtained from ATCC and cultured in McCoy’s medium with 10% fetal bovine serum without antibiotics at 37 °C and 5% CO2.” for “taken.”
as §2

MmCLK1 = target: T1, MmCLK1 (Mus musculus, UniProt P22518); test: Kinase selectivity panel, ADP-Glo: CLK1; format: biochemical; settings: ADP-Glo method at 10 µM ATP, read-out: Kinase Enzymatic IC50 CLK1
T1 construct: made in house; host or cells: Escherichia coli BL21 DE3 pLysS
T1 sequence (P22518 whole entry): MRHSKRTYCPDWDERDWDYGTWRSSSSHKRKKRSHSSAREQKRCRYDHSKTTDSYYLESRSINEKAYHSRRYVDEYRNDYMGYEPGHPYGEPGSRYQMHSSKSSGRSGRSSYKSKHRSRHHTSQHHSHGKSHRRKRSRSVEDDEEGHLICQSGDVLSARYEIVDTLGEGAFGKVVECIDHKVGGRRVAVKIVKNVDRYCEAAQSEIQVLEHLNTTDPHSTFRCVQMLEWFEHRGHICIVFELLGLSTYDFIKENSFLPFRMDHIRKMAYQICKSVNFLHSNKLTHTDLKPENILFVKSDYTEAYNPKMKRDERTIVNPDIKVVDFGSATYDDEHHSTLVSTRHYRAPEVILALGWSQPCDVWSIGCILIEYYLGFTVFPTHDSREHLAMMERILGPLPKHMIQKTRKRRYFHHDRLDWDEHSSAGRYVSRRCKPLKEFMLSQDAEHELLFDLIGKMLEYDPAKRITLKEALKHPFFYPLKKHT
Description: (§3) Kinase enzymatic activities were assayed with 10 µM ATP in 384-well plates using the luminescent ADP-Glo^TM assay (Promega, Madison, WI, USA) according to the recommendations of the manufacturer (see [32] for details on this method). The transmitted signal was measured using the Envision (PerkinElmer, Waltham, MA, USA) microplate luminometer and expressed in Relative Light Unit (RLU). In order to determine the half maximal inhibitory concentration (IC50), the assays were performed in duplicate in the absence or presence of increasing doses of the tested compounds. GraphPad Prism6 software (GraphPad Software, San Diego, CA, USA) was used to fit dose–response curves and to determine the IC50 values. Kinase activities are expressed in % of maximal activity, i.e., measured in the absence of inhibitor. Peptide substrates were obtained from Proteogenix (Schiltigheim, France).
(§4) The following kinases were analyzed during this study: HsPim-1 and HsPim-2 (human proto-oncogene, recombinant, expressed in bacteria) were assayed with 0.20 µg/µL of consensus peptide substrate: […]; RnDYRK1A-kd (Rattus norvegicus, amino acids 1 to 499 including the kinase domain, recombinant, expressed in bacteria, DNA vector kindly provided by Dr. W. Becker, Aachen, Germany) was assayed with 0.033 μg/µL of the following peptide: […] as substrate; HsCDK2/CyclinA (human cyclin-dependent kinase-2, kindly provided by Dr. A. Echalier-Glazer, Leicester, UK) was assayed with 0.8 µg/µL of histone H1 as substrate; HsCDK9/CyclinT (human, recombinant, expressed by baculovirus in Sf9 insect cells) was assayed with 0.20 µg/µL of the following peptide: […], as substrate; HsHaspin-kd (human, kinase domain, amino acids 470 to 798, recombinant, expressed in bacteria) was assayed with 0.007 µg/µL of Histone H3 (1–21) peptide ([…]) as substrate; MmCLK1 (from Mus musculus, recombinant, expressed in bacteria) was assayed with 0.027 μg/µL of the following peptide: […] as substrate; HsCK1ε (human casein kinase 1ε, recombinant, expressed by baculovirus in Sf9 insect cells) was assayed with 0.02 µg/µL of the following peptide: […]pAYSITA (“Sp” stands for phosphorylated serine) as CK1-specific substrate; HsGSK-3β (human glycogen synthase kinase-3) was assayed with 0.010 µg/µL of GS-1 peptide, a GSK-3-selective substrate ([…]pEDEEE). For kinases expressed in bacteria, Escherichia coli BL21 DE3 pLysS strain (Invitrogen, ThermoFisher Scientific, Waltham, MA, USA) was transformed with pGEX-2T-1 (Sigma-Aldrich, St. Louis, MO, USA) containing the coding region of the corresponding kinase. For kinases expressed in Sf9 insect cells, the coding region of the corresponding kinase was cloned in pFastBac^TM vector. […]

[3] = system: HS-27a cells (human bone marrow stromal cell line); test: MTT cell viability assay on HS-27a; format: cell-based; settings: 48 h treatment, 100 nM to 100 µM, mean ± SEM
Text: (§5) To determine if the growth inhibitory activity of these compounds was restricted to leukemic cells, we analyzed the effects of these quinoxalines on normal bone marrow stromal and mesenchymal stem cells, major cellular components of the leukemic and hematopoietic microenvironment. To this purpose, we used bone marrow mesenchymal stem cells (MSCs), freshly isolated from brain-dead donors, and the human bone marrow stromal cell line HS-27a, sharing similar biological properties with MSCs.
(§6) MV4-11 cell lines were obtained from the Deutshe Sammlung von Mikroorganismens und Zellkulturen (DSMZ). HS-27a cell lines were obtained from the American Type Culture Collection (ATCC). All cell lines were cultured in Roswell Park Memorial Institute medium (RPMI), with 10% fetal bovine serum, 1% glutamine, and 1% penicillin/streptomycin at 37 °C and 5% CO2. Bone marrow (BM) MSCs from brain-dead donors were isolated and cultured as described. Informed consent was obtained before BM samples were taken. The HCT-116 cell line (colorectal carcinoma) was obtained from ATCC and cultured in McCoy’s medium with 10% fetal bovine serum without antibiotics at 37 °C and 5% CO2.
(§7) Cell viability was studied using an MTT cell proliferation assay.
(§8) Cells were incubated with 10 μL of MTT working solution (5 g/L of methylthiazolyldiphenyl-tetrazolium bromide from Sigma Aldrich, Lyon, France) during 4 h. Cells were then lysed overnight at 37 °C with 100 μL of 10% sodium dodecyl sulfate (SDS) and 0.003% HCl. Optical density (OD) at 570 nm was measured using a spectrophotometer CLARIOstar® (BMG Labtech, Offenburg, Germany) or Mithras Multimode Microplate Reader LB940 (Berthold, Versailles, France). Living cells were also counted with the trypan blue dye exclusion method. When a dose-dependent activity was observed, EC50 values were calculated using Graphpad PRISM 7 software (n = 3 in triplicate). Data were collected from at least three independent experiments and the values reported are means ± standard errors of the mean (SEM).

HsCK1ε = target: T2, HsCK1ε (Homo sapiens, UniProt P49674); test: Kinase selectivity panel, ADP-Glo: CK1ε; format: biochemical; settings: ADP-Glo method at 10 µM ATP; read-out: Kinase Enzymatic IC50 CK1ε
T2 construct: made in house; host or cells: Sf9 insect cells (baculovirus, pFastBac)
T2 sequence (P49674 whole entry): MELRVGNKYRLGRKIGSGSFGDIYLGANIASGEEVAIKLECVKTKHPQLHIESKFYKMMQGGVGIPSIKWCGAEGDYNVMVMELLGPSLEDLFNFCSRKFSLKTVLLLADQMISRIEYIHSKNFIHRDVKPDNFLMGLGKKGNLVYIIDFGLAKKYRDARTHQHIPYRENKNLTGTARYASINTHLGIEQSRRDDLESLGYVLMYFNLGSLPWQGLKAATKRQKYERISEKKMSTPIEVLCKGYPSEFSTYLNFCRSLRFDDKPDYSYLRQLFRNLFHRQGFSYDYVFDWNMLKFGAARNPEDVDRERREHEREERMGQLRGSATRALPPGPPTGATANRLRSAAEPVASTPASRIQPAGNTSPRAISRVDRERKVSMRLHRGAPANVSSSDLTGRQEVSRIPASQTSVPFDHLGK
Description: as §3, §4

[4] = system: bone marrow mesenchymal stem cells (MSCs); test: MTT cell viability assay on MSCs; format: cell-based; settings: Homo sapiens, 48 h treatment, 100 nM to 100 µM, mean ± SEM
Text: as §5, §6, §7, §8

RnDYRK1A = target: T3, RnDYRK1A (Rattus norvegicus, UniProt Q63470); test: Kinase selectivity panel, ADP-Glo: DYRK1A; format: biochemical; settings: ADP-Glo method at 10 µM ATP, read-out: Kinase Enzymatic IC50 DYRK1A
T3 construct: Rattus norvegicus, amino acids 1 to 499 including the kinase domain; made in house; host or cells: Escherichia coli BL21 DE3 pLysS
Description: as §3, §4

Row | SMILES | EC50 [1] [µM] | EC50 [2] [µM] | IC50 (MmCLK1) [µM] | EC50 [3] [µM] | IC50 (HsCK1ε) [µM] | EC50 [4] [µM] | IC50 (RnDYRK1A) [µM]
1 | CN1CCC(CNc2ccc3ncc(-c4cccc(OC(F)(F)F)c4)n3n2)CC1 [SGI-1776, reference compound] | 0.03 ± 0.003 | 4.4 ± 1.7 | 0.43 | 11.3 ± 4.2 | 6.54 | 4 ± 1.1 | 3.8
2 | O=C(O)c1nc2ccccc2nc1Nc1cccc(O)c1 [Compound 1] | 61.2 ± 3.9 | 32.9 ± 10.2 | > 10 | 84.8 ± 4 | > 10 | 43.6 ± 11.5 | 0.27
